Several values for one entry are separate records, joined by “and”; a condition that tells them apart may be missing. Equal values may be shown once.
Key:
Type in all cases: biochemical
Parameters in all cases: purchased Sigma-Aldrich Co
[1] = target: T1, β-galactosidase (Escherichia coli, UniProt P00722); experiment: Standard microplate assay (Example 1 comparison values); conditions: read-out: IC50 of PETG measured in a standard microplate assay
[2] = target: T1, β-galactosidase; experiment: Microplate dose-response assay, β-galactosidase (Example 2); conditions: 8-point microplate assay, n=10; read-out: IC50 obtained in microplate
Protocol: For β-galactosidase, a solution of the inhibitor PETG was diluted to 200 μM in PBS and then further diluted in 3-fold serial dilution steps seven times (200 μM down to […]). 10 μl aliquots of each dilution were pipetted into the wells of a black, opaque 384-well plate (Corning, Inc., New York, USA). A stock of the substrate FDG was diluted to 240 μM in PBS and 10 μl aliquots were added to the wells. The reactions were initiated by adding 20 μl of 10 U/ml β-galactosidase, in PBS containing 2 g/l BSA, to each well. A SpectraMax M5 microplate reader (Molecular Devices, Inc., California, USA) was used to monitor the reactions at 25° C. with an excitation wavelength of 490 nm, an emission wavelength of 514 nm (automatic cut-off), and a 15 second period between measurements. The initial rate of each reaction was determined and the percentage inhibition of β-galactosidase activity was calculated by scaling this initial rate between a blank (no enzyme, equivalent to 100% inhibition) and a positive control (no inhibitor, equivalent to 0% inhibition) in the same manner as Eq. 1 (see above). When required, the 4-parameter Hill function was fitted to a plot of percentage inhibition against logged inhibitor concentration to determine the IC50 of PETG.

[3] = target: T1, β-galactosidase; experiment: Droplet microfluidic IC50 measurement, on-chip serial dilution network with scanning chamber (Example 1d), RBG substrate; conditions: 75 s droplet incubation, 4-parameter log-logistic fit, read-out: IC50 of PETG in the enzyme/substrate/inhibitor system
Protocol: In the examples, the model systems comprised an enzyme, a substrate, and an inhibitor for IC50 measurements and an enzyme and substrate alone for KM measurements. In all cases the enzyme was β-galactosidase (Sigma-Aldrich Co.), the substrate was resorufin β-D-galactopyranoside (RBG; Invitrogen Corporation), and the inhibitor was phenylethyl β-D-thiogalactopyranoside (PETG; Invitrogen Corporation).
An aqueous phase of 120 μM PETG (the inhibitor) and 100 μM sodium fluorescein in PBS were injected into the ‘compound’ input of the micro fluidic device (FIG. 4) at a flow rate of 111 μl/hr. A second aqueous phase, PBS, was injected into the ‘diluent’ input at a flow rate of 389 μl/hr. […]
A series of microdroplets were created containing PETG (and sodium fluorescein) at different concentrations: from zero to 30 μM (25 μM sodium fluorescein) and then from 30 μM to zero. […] The amounts of fluorescent resorufin (liberated by β-galactosidase activity) and sodium fluorescein were measured for each droplet by monitoring fluorescence intensity in the 590-625 and 500-520 nm channels, respectively.
About 10^5 microdroplets were plotted in an XY graph with initial reaction rate (inferred from resorufin fluorescence after 75 seconds of droplet incubation) against inhibitor concentration (assumed to be proportional to sodium fluorescein fluorescence). […]

T1 sequence (P00722 2-1024 limits assumed): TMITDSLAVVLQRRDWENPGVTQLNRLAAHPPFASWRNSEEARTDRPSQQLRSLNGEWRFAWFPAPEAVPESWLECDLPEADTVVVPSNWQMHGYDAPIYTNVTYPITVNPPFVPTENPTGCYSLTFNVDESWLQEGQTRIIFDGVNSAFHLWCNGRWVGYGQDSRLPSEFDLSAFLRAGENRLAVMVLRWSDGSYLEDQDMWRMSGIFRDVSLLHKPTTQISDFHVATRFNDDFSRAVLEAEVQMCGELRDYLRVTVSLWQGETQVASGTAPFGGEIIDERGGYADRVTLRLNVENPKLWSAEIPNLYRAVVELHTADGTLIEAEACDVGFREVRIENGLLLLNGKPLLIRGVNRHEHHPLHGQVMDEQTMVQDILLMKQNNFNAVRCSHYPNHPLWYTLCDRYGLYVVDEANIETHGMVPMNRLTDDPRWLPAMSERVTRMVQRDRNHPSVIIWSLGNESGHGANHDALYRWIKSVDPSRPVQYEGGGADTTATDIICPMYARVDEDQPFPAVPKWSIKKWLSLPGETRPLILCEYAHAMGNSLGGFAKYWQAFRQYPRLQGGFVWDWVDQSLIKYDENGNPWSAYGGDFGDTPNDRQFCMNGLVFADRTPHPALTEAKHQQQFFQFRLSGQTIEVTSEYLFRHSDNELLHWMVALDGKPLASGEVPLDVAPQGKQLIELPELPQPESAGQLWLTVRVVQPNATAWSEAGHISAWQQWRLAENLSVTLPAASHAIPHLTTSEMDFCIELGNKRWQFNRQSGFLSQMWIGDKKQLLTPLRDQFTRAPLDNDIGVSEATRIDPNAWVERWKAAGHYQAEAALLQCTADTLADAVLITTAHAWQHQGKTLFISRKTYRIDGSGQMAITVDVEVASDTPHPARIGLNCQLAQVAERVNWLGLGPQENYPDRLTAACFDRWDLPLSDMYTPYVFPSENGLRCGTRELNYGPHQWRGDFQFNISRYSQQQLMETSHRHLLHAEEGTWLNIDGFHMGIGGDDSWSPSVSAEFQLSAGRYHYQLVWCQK

OC[C@H]1O[C@@H](SCCc2ccccc2)[C@H](O)[C@@H](O)[C@H]1O [PETG, phenylethyl β-D-thiogalactopyranoside]
IC50 [1]: 1430 nM | IC50 [2]: 2720 nM | IC50 [3]: 2210 nM and 3040 nM

— US20130072404A1, “APPARATUS AND PROCESSES FOR GENERATING VARIABLE CONCENTRATION OF SOLUTES IN MICRODROPLETS” (UNIVERSITE DE STRASBOURG, priority 2009, published 2013)
